Source: ChEMBL document CHEMBL1133125, “A sigma-1 receptor selective analogue of BD1008. A potential substitute for (+)-opioids in sigma receptor binding assays” (Bioorg Med Chem Lett, 2000)

Molecular target: Sigma 2 receptor
Test: Binding affinity against sigma 2 opioid receptor using 3[H]-DTG in the presence of dextrallorphan as radioligand

| Ki | Compound |
| --- | --- |
| 8.1 nM | CN(CCc1ccc(Cl)c(Cl)c1)CCN1CCCC1 |
| > 10000 nM | O=C(Cc1ccc(Cl)c(Cl)c1)OCCN1CCCC1 |
